Source: patent US11279697B2, “Aromatic derivative, preparation method for same, and medical applications thereof” (BIOARDIS LLC, priority 2017, dated 2022)

Target: human FGFR4 protein (460-802 amino acids) (Homo sapiens (Human), UniProt P22455)
Assay: FGFR4 Activity Inhibition Test (HTRF KinEASE-TK in vitro kinase assay)
Format: biochemical
Settings: compound-enzyme incubation 60 min at room temperature, kinase reaction 37° C. 40 min, 10 concentration points
Experimental: The influence of the compound of the present invention on the activity of the tyrosine kinase FGFR4 was evaluated by an in vitro kinase assay experiment. The experimental method is summarized as follows: A HTRF® KinEASE™-TK 20000 tests kinase assay kit from CISBIO Corp. was used. The kit provided a biotin-labeled substrate, an EU-labeled phosphorylation site-specific antibody, and XL665-labeled avidin and a related buffer. FGFR4 phosphorylated the substrate, Eu-Ab identified the phosphorylated substrate, and XL665-SA binded to the biotin on the substrate, making Eu get closer to XL665, thus generating the HTRF signal. Changes in the activity of kinase was detected by reading the intensity of the HTRF signal. In the kinase assay experiment, there were mainly two steps of reaction: kinase reaction and assay reaction, respectively. In the kinase reaction, the kinase consumed ATP to phosphorylate the substrate, and at the same time produced a substrate containing a phosphate group. In the assay reaction, an assay reagent was added to terminate the kinase reaction. At the same time, the specific antibody and the XL665-labeled avidin in the assay reagent were binded to the phosphate group on the substrate and biotin respectively to generate HTRF signals. The signal intensity was directly proportional to the phosphorylation level of the substrate, and thereby the activity of the kinase FGFR4 could be quantitatively assayed. During the assay, the binding and incubation of the compound with the enzyme was carried out at room temperature for 60 min. The kinase reaction was carried out at a constant temperature of 37° C. for 40 min. […] The kinase substrates were TK (commercially available from Cisbio) and ATP (Sigma). The optical signals were read by a microplate reader TECAN Spark 10M plate reader (TECAN). The kinase reaction buffer comprised 1× Enzymatic buffer (CISBIO) 5 mM MgCl2 (Sigma) and 1 mM DTT (Sigma). […] First, the compound was dissolved and diluted with 100% DMSO into a 96-well plate at 3 concentrations: 4 mM, 40 μM, and 0.4 μM. […] Each concentration point was provided with two copy holes (starting point 10 μM, 3-fold dilution). First, 6 μL of the kinase solution was added into the 384-well assay plate, mixed uniformly and then incubated at room temperature for 60 min. Then 4 μL of the substrate reaction solution was added, and the total reaction volume was 10 μL. […] Subsequently, 10 μL of the kinase assay reagent was added and the reaction was terminated. Then the numerical values were read on the TECAN plate reader. The inhibition percentage was calculated based on the following formula: % inhibition=[1−(RLUcompound−RLUmin)/(RLUmax−RLUmin)]×100 wherein RLUcompound is the luminescence reading at the given compound concentration, RLUmin is the luminescence reading without the addition of kinase, and RLUmax is the luminescence reading without the addition of the compound. IC50 of the compound was calculated by the XLfit program in Excel.

Sequence of human FGFR4 protein (460-802 amino acids) (P22455 460-802): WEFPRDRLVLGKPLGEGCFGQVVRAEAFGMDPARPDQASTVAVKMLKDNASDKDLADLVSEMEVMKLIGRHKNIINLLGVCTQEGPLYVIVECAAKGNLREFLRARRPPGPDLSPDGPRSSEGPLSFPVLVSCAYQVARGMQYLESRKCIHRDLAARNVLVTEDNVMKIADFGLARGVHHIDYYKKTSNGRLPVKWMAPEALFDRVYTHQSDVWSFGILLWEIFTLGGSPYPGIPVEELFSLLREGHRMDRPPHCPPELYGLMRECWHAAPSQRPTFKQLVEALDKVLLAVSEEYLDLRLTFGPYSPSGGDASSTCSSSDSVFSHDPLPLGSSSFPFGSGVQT

SMILES	IC50 [nM]
C=CC(=O)Nc1ccc(Cl)cc1-c1n[nH]c2c1CC[C@@H](c1c(Cl)c(OC)cc(OC)c1Cl)C2 (single isomer, unassigned) [Compound 287-P1, N-(4-chloro-2-(6-(2,6-dichloro-3,5-dimethoxyphenyl)-4,5,6,7-tetrahydro-1H-indazol-3-yl)phenyl)acrylamide]	158
C=CC(=O)Nc1cnn(C)c1-c1n[nH]c2c1CC[C@@H](c1cc(OC)cc(OC)c1Cl)C2 (single isomer, unassigned) [Compound 311-P1, N-(5-(6-(2-chloro-3,5-dimethoxyphenyl)-4,5,6,7-tetrahydro-1H-indazol-3-yl)-1-methyl-1H-pyrazol-4-yl)acrylamide]	203
C=CC(=O)Nc1ccc(N2CCN(C)CC2)cc1-c1n[nH]c2c1CC[C@@H](c1c(F)c(OC)cc(OC)c1F)C2 (single isomer, unassigned) [Compound 301-P1, N-(2-(6-(2,6-difluoro-3,5-dimethoxyphenyl)-4,5,6,7-tetrahydro-1H-indazol-3-yl)-4-(4-methylpiperazin-1-yl)phenyl)acrylamide]	3.4
C=CC(=O)Nc1ccc(F)cc1-c1n[nH]c2c1CCC(c1c(Cl)c(OC)cc(OC)c1Cl)=C2 [Compound 297, N-(2-(6-(2,6-dichloro-3,5-dimethoxyphenyl)-4,5-dihydro-1H-indazol-3-yl)-4-fluorophenyl)acrylamide]	236
C=CC(=O)Nc1cnn(C)c1-c1n[nH]c2c1CC[C@@H](c1cc(OC)cc(OC)c1F)C2 (single isomer, unassigned) [Compound 302-P1, N-(5-(6-(2-fluoro-3,5-dimethoxyphenyl)-4,5,6,7-tetrahydro-1H-indazol-3-yl)-1-methyl-1H-pyrazol-4-yl)acrylamide]	85.5
C=CC(=O)Nc1cnn(C)c1-c1n[nH]c2c1CC[C@@H](c1cc(OC)cc(OC)c1Cl)C2 (single isomer, unassigned) [Compound 311-P2, N-(5-(6-(2-chloro-3,5-dimethoxyphenyl)-4,5,6,7-tetrahydro-1H-indazol-3-yl)-1-methyl-1H-pyrazol-4-yl)acrylamide]	129
C=CC(=O)Nc1cnn(C)c1-c1n[nH]c2c1CC[C@@H](c1cc(OC)cc(OC)c1)C2 (single isomer, unassigned) [Compound 310-P2, N-(5-(6-(3,5-dimethoxyphenyl)-4,5,6,7-tetrahydro-1H-indazol-3-yl)-1-methyl-1H-pyrazol-4-yl)acrylamide]	171
C=CC(=O)Nc1ccccc1-c1n[nH]c2c1CCC(c1c(F)c(OC)cc(OC)c1F)C2 (stereo not drawn) [Compound 093, N-(2-(6-(2,6-difluoro-3,5-dimethoxyphenyl)-4,5,6,7-tetrahydro-1H-indazol-3-yl)phenyl)acrylamide]	29.2
C=CC(=O)Nc1ccc(N2CCN(C)CC2)cc1-c1n[nH]c2c1CC[C@@H](c1c(Cl)c(OC)cc(OC)c1Cl)C2 (single isomer, unassigned) [Compound 283-P1, N-(2-(6-(2,6-dichloro-3,5-dimethoxyphenyl)-4,5,6,7-tetrahydro-1H-indazol-3-yl)-4-(4-methylpiperazin-1-yl)phenyl)acrylamide]	190
C=CC(=O)Nc1cc(F)ccc1-c1n[nH]c2c1CCC(c1c(Cl)c(OC)cc(OC)c1Cl)=C2 [Compound 296, N-(2-(6-(2,6-dichloro-3,5-dimethoxyphenyl)-4,5-dihydro-1H-indazol-3-yl)-5-fluorophenyl)acrylamide]	118
C=CC(=O)Nc1ccc(N2CCOCC2)cc1-c1n[nH]c2c1CCC(c1c(Cl)c(OC)cc(OC)c1Cl)=C2 [Compound 300, N-(2-(6-(2,6-dichloro-3,5-dimethoxyphenyl)-4,5-dihydro-1H-indazol-3-yl)-4-morpholinophenyl)acrylamide]	504
C=CC(=O)Nc1cc(Cl)ccc1-c1n[nH]c2c1CC[C@@H](c1c(Cl)c(OC)cc(OC)c1Cl)C2 (single isomer, unassigned) [Compound 289-P1, N-(5-chloro-2-(6-(2,6-dichloro-3,5-dimethoxyphenyl)-4,5,6,7-tetrahydro-1H-indazol-3-yl)phenyl)acrylamide]	109
C=CC(=O)Nc1ccc(N2CCN(C)CC2)cc1-c1n[nH]c2c1CC[C@@H](c1c(Cl)c(OC)cc(OC)c1Cl)C2 (single isomer, unassigned) [Compound 283-P2, N-(2-(6-(2,6-dichloro-3,5-dimethoxyphenyl)-4,5,6,7-tetrahydro-1H-indazol-3-yl)-4-(4-methylpiperazin-1-yl)phenyl)acrylamide]	45
C=CC(=O)Nc1cnn(C)c1-c1n[nH]c2c1CC[C@@H](c1c(F)c(OC)cc(OC)c1Cl)C2 (single isomer, unassigned) [Compound 303-P2, N-(5-(6-(2-chloro-6-fluoro-3,5-dimethoxyphenyl)-4,5,6,7-tetrahydro-1H-indazol-3-yl)-1-methyl-1H-pyrazol-4-yl)acrylamide]	5.5
C=CC(=O)Nc1cnn(C)c1-c1n[nH]c2c1CC[C@@H](c1c(F)c(OC)cc(OC)c1Cl)C2 (single isomer, unassigned) [Compound 303-P1, N-(5-(6-(2-chloro-6-fluoro-3,5-dimethoxyphenyl)-4,5,6,7-tetrahydro-1H-indazol-3-yl)-1-methyl-1H-pyrazol-4-yl)acrylamide]	6
C=CC(=O)Nc1cnn(C)c1-c1n[nH]c2c1CC[C@@H](c1cc(OC)cc(OC)c1F)C2 (single isomer, unassigned) [Compound 302-P2, N-(5-(6-(2-fluoro-3,5-dimethoxyphenyl)-4,5,6,7-tetrahydro-1H-indazol-3-yl)-1-methyl-1H-pyrazol-4-yl)acrylamide]	35.4
C=CC(=O)Nc1cc(Cl)ccc1-c1n[nH]c2c1CC[C@@H](c1c(Cl)c(OC)cc(OC)c1Cl)C2 (single isomer, unassigned) [Compound 289-P2, N-(5-chloro-2-(6-(2,6-dichloro-3,5-dimethoxyphenyl)-4,5,6,7-tetrahydro-1H-indazol-3-yl)phenyl)acrylamide]	210
CC#CC(=O)Nc1ccccc1-c1cc(CCc2c(Cl)c(OC)cc(OC)c2Cl)[nH]n1 [Compound 096, N-(2-(5-(2,6-dichloro-3,5-dimethoxyphenethyl)-1H-pyrazol-3-yl)phenyl)but-2-ynoic amide]	348
C=CC(=O)Nc1ccc(Cl)cc1-c1n[nH]c2c1CC[C@@H](c1c(Cl)c(OC)cc(OC)c1Cl)C2 (single isomer, unassigned) [Compound 287-P2, N-(4-chloro-2-(6-(2,6-dichloro-3,5-dimethoxyphenyl)-4,5,6,7-tetrahydro-1H-indazol-3-yl)phenyl)acrylamide]	91.1
C=CC(=O)Nc1ccccc1-c1n[nH]c2c1CCC(c1cc(OC)cc(OC)c1F)C2 (stereo not drawn) [Compound 114, N-(2-(6-(2-fluoro-3,5-dimethoxyphenyl)-4,5,6,7-tetrahydro-1H-indazol-3-yl)phenyl)acrylamide]	158
C=CC(=O)Nc1cnn(C)c1-c1n[nH]c2c1CC[C@@H](c1cc(OC)cc(OC)c1)C2 (single isomer, unassigned) [Compound 310-P1, N-(5-(6-(3,5-dimethoxyphenyl)-4,5,6,7-tetrahydro-1H-indazol-3-yl)-1-methyl-1H-pyrazol-4-yl)acrylamide]	446
C=CC(=O)Nc1cnn(C)c1-c1n[nH]c2c1CC[C@@H](c1c(F)c(OC)cc(OC)c1F)C2 (single isomer, unassigned) [Compound 281-P1, N-(5-(6-(2,6-difluoro-3,5-dimethoxyphenyl)-4,5,6,7-tetrahydro-1H-indazol-3-yl)-1-methyl-1H-pyrazol-4-yl)acrylamide]	5.73
C=CC(=O)Nc1ccc(N2CCN(C)CC2)cc1-c1n[nH]c2c1CC[C@@H](c1c(F)c(OC)cc(OC)c1F)C2 (single isomer, unassigned) [Compound 301-P2, N-(2-(6-(2,6-difluoro-3,5-dimethoxyphenyl)-4,5,6,7-tetrahydro-1H-indazol-3-yl)-4-(4-methylpiperazin-1-yl)phenyl)acrylamide]	11.8
C=CC(=O)Nc1cnn(C)c1-c1n[nH]c2c1CC[C@@H](c1c(F)c(OC)cc(OC)c1F)C2 (single isomer, unassigned) [Compound 281-P2, N-(5-(6-(2,6-difluoro-3,5-dimethoxyphenyl)-4,5,6,7-tetrahydro-1H-indazol-3-yl)-1-methyl-1H-pyrazol-4-yl)acrylamide]	2.96
